Assay results published in PubChem BioAssay (NCI).
Several values for one entry are separate records, joined by “and”; a condition that tells them apart may be missing. Equal values may be shown once.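 Dose response: 5 concentrations. Exposure: 48 h. Format: 96-well plates. Endpoint: linear interpolation; highest concentration if not reached. Abbreviation: GI50, concentration required for 50% inhibition of growth. At the TGI there is no net growth.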

Legend:
Test in all cases: growth of human tumour cells (NCI), 48 h
[1] = system: KM20L2 colon
[2] = system: UO-31 renal
[3] = system: OVCAR-3 ovarian
[4] = system: LOX IMVI melanoma
[5] = system: HCC-2998 colon
[6] = system: MALME-3M melanoma
[7] = system: HL-60(TB) leukemia
[8] = system: DLD-1 colon
[9] = system: KM12 colon
[10] = system: MDA-MB-435

SMILES | TGI [1] | TGI [2] | TGI [3] | TGI [4] | TGI [5] | TGI [6] | TGI [7] | TGI [8] | TGI [9] | GI50 [1] | GI50 [2] | GI50 [3] | GI50 [5] | GI50 [6] | TGI [10] | GI50 [8] | GI50 [4] | GI50 [7] | GI50 [9]
O=S1OC(c2ccccc2)(c2ccccc2)C(c2ccccc2)(c2ccccc2)O1 | > 100 µM | > 100 µM | > 100 µM | > 100 µM | > 100 µM | > 100 µM | > 100 µM | > 100 µM | > 100 µM | – | – | – | – | – | – | – | – | – | –
C/C(CN1C(=O)c2ccccc2C1=O)=N\NS(=O)(=O)c1ccc2ccccc2c1 | > 100 µM | > 100 µM | > 100 µM | > 100 µM | > 100 µM | > 100 µM | > 100 µM | > 100 µM | > 100 µM | – | – | – | – | – | – | – | – | – | –
O=C(CCc1n[nH]c(=S)o1)Nc1cc(Cl)ccc1Cl | > 100 µM | > 100 µM | > 100 µM | – | > 100 µM | > 100 µM | 78.9 µM | > 100 µM | > 100 µM | – | – | – | – | – | – | – | – | – | –
CC[C@@]1(OP(=O)(O)O)C(=O)OCc2c1cc1n(c2=O)Cc2cc3ccccc3nc2-1 | – | 0.625 µM and 1.03 µM | 3.79 µM | 0.585 µM | 6.06 µM and 8.45 µM | 9.87 µM and 14 µM | 0.188 µM | – | 3.47 µM | 0.458 µM | 0.099 µM | 0.93 µM | 1.57 µM | 1.09 µM | 2.11 µM | 2.56 µM | – | – | –
N#CC(C(=O)CCCC(=O)Nc1ccccc1[N+](=O)[O-])c1c(Cl)cccc1Cl (stereo not given) | > 100 µM | > 100 µM | > 100 µM | – | > 100 µM | > 100 µM | > 100 µM | > 100 µM | > 100 µM | – | – | – | – | – | – | – | – | – | –
CN(C)CCC(N)(P(=O)([O-])[O-])P(=O)([O-])[O-].N.N.[Pt+2] | > 100 µM | > 100 µM | > 100 µM | > 100 µM | > 100 µM | > 100 µM | > 100 µM | > 100 µM | > 100 µM | > 100 µM | > 100 µM | > 100 µM | > 100 µM | > 100 µM | – | > 100 µM | > 100 µM | > 100 µM | > 100 µM
COc1ccc(C2COc3c(ccc(OC)c3OC)C2=O)cc1OC (stereo not given) | > 100 µM | > 100 µM | > 100 µM | > 100 µM | > 100 µM | > 100 µM | > 100 µM | > 100 µM | > 100 µM | – | – | – | – | – | – | – | – | – | –
CC(=O)OCC1C(=O)OCC1C(=O)N1Cc2cc3ccccc3nc2C1 (stereo not given) | 11 µM | 8.15 µM | 6.14 µM | 5.66 µM | 22.9 µM | 3.16 µM | 11.9 µM | 3.37 µM | 30.4 µM | – | – | – | – | – | 11.9 µM | – | – | – | –
O=C1C2C3CC4C5C3C1C5C1(SCCS1)C42 (stereo not given) | > 100 µM | > 100 µM | – | – | > 100 µM | > 100 µM | > 100 µM | > 100 µM | > 100 µM | – | – | – | – | – | – | – | – | – | –
CC1(OCc2ccccc2)C(=O)N2C1NCC2(C)C (stereo not given) | > 100 µM | > 100 µM | > 100 µM | > 100 µM | > 100 µM | > 100 µM | > 100 µM | > 100 µM | – | – | – | – | – | – | – | – | – | – | –
